Values of other authors in patent publication US20230066280A1, “DRUG ELUTING BIOMATERIALS” (UCL BUSINESS LTD, priority 2020, published 2023).

How the values were obtained:
[1] = system: Rho; conditions: SY5YAPP, HEK 293 and PC12 cells (ref 30)

| initial loaded drug released within 24 hours (ibuprofen from EVA, previous study (ref 24)) [%] | release rate of ibuprofen from MSN (mesoporous silica nanoparticles, previous studies (ref 20)) [%] | SMILES | levels of active Rho-GTP [1] |
| --- | --- | --- | --- |
| 50 | 96.3 | CC(C)Cc1ccc(C(C)C(=O)O)cc1 (stereo not drawn) [ibuprofen] |  |
|  |  | CSc1ccc(/C=C2/C(C)=C(CC(=O)O)c3cc(F)ccc32)cc1 [sulindac sulfide] | reduced |
